Results from ChEMBL document CHEMBL1201862, “PubChem BioAssay data set” (2004).
Activity calls are given as the source filed them.

Columns and labels:
[1] = inhibitors of intracellular T. cruzi replication, confirmation, NIH3T3 host cells, beta-gal luminescence (AID 2044); type: functional, cell-based;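 further: intracellular parasites grown in NIH/3T3 mouse fibroblasts as host cells; luminescent beta-galactosidase reporter signal from transgenic T. cruzi replicating inside host cells; inhibitors lower the luminescence signal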
[2] = cytotoxicity toward NIH3T3 fibroblasts, dose response, counter-screen, cell-based, ATP luminescence, mouse fibroblasts (AID 2010); type: functional;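 further: cells exposed to compound for about 90 hours before reading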
Cytochrome P450 3A4 = Cytochrome P450 3A4 (Homo sapiens, UniProt P08684);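 further: CYP3A4 tested as one member of a cytochrome P450 panel screen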
Cytochrome P450 2C19 = Cytochrome P450 2C19 (Homo sapiens, UniProt P33261); experiment: Cytochrome panel assay with activity outcomes. Panel member name: p450-cyp2c19 Compounds with AC50 equal or less than 10 uM are considered active; type: functional
[3] = system: Streptococcus sp. 'group A'; experiment: growth inhibition of control SK(-) GAS strain, dose response, counter-screen for streptokinase expression inhibitor project, luminescence, kanamycin, BacTiterGlo, confirmation (AID 1900); type: functional, organism-based
Streptococcus = experiment: Group A Streptococcus viability loss, dose response, counter-screen for streptokinase expression inhibitor project, luminescence, BacTiterGlo (AID 1915); type: functional, organism-based;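 further: potency for reduction of bacterial viability or growth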

Cytochrome P450 2C19, sequence (P33261 whole entry): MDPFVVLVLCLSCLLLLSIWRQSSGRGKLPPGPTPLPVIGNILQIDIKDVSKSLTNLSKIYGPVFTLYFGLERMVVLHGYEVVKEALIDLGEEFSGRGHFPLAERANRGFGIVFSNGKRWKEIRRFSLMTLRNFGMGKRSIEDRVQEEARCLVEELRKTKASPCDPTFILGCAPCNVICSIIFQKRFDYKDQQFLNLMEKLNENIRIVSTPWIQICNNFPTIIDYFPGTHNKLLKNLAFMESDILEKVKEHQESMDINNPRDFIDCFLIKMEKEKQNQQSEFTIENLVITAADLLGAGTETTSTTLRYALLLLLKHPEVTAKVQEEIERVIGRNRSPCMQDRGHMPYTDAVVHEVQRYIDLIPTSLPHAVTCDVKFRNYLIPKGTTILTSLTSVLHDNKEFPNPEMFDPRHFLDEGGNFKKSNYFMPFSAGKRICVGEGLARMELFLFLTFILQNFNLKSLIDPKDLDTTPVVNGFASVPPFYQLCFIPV
Cytochrome P450 3A4, sequence (P08684 whole entry): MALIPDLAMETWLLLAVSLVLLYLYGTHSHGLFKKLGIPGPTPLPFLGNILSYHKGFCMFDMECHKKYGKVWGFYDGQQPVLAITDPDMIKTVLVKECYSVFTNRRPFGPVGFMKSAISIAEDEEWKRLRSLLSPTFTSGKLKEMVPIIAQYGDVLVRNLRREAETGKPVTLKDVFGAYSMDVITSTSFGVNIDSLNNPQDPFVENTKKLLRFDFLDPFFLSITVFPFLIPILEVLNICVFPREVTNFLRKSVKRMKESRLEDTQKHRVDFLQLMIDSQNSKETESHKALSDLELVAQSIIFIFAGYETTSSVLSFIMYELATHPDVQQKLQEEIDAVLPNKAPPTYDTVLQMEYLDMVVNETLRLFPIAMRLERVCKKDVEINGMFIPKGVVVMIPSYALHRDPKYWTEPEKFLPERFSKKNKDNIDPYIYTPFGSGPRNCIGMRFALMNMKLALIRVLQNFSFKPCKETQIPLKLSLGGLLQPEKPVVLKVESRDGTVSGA

Row | SMILES | AC50 (Cytochrome P450 3A4) | AC50 (Cytochrome P450 2C19; read-out: AC50) | EC50 [1] | EC50 [2] | also measured
1 | CN1CCN(CCOc2ccc(Cc3ccccc3)cc2)CC1 |  |  | 0.378 µM (active) | > 60 µM (not active) | 
2 | COc1ccc2ccccc2c1CNC(C)CCc1ccccc1 (stereo not given) |  |  | 2.94 µM (active) | > 60 µM (not active) | 
3 | Cc1cc(C)c2nc(N(CCCN(C)C)C(=O)c3ccc(S(=O)(=O)N4CC(C)OC(C)C4)cc3)sc2c1 (stereo not given) |  |  | 0.297 µM (active) | > 30 µM (not active) | 
4 | CC(C)(C)c1ccc(-c2nc3c(C#N)c(-c4ccc5c(c4)OCO5)ccn3n2)cc1 |  |  | 1.46 µM (active) | > 60 µM (not active) | 
5 | CC(=O)NS(=O)(=O)c1ccc(NC(=S)NC(=O)C(C)(C)C)cc1 |  |  |  |  | AC50 (Cytochrome P450 2C19): inconclusive
6 | COc1cc(Cl)cc(/C=C/c2ccc3cccc(O)c3n2)c1OC |  |  |  |  | EC50 [3]: 0.851 µM (active); EC50 (Streptococcus): 1.85 µM (active)
7 | CCOC(=O)c1c(N=C(S)N2CCN(C)CC2)sc(C)c1-c1ccccc1 |  |  | 0.467 µM (active) | > 30 µM (not active) | EC50 [3]: 6.75 µM (active); EC50 (Streptococcus): > 150 µM (not active)
8 | CN(C)CCn1c(=O)n(Cc2ccccc2)c(=O)c2c3c(sc21)CCCCC3 |  |  | 0.505 µM (active) | > 60 µM (not active) | 
9 | COc1ccc(-n2cc(CN(C)C(C)c3ccncn3)c(-c3cccc(F)c3)n2)cc1 (stereo not given) |  |  | 2.99 µM (active) | > 60 µM (not active) | 
10 | Cc1cc(S(=O)(=O)Nc2ccc(C(=O)NCC(c3ccco3)N3CCCC3)cc2)ccc1F (stereo not given) |  |  | 0.578 µM (active) | > 60 µM (not active) | 
11 | Cc1ccc(-c2cn(S(=O)(=O)c3cccc([N+](=O)[O-])c3)nc2N)cc1 |  |  | 1.03 µM (active) | > 30 µM (not active) | 
12 | CCCCn1c(-c2cccc3ccccc23)nc2cc3nc(O)c(C(C)C)nc3cc21 |  |  | 1.08 µM (active) | > 60 µM (not active) | 
13 | CC(C)Oc1c(Br)cc(Br)cc1/C=N/NC(N)=S |  |  | 1.35 µM (active) | > 30 µM (not active) | 
14 | C/C(=N\NC(N)=S)C1=CCC2C3CC[C@H]4CC(O)CC[C@]4(C)C3CC[C@]12C (stereo not given in full) |  |  | 0.159 µM (active) | 9.97 µM (active) | 
15 | Brc1ccc(-c2ccc(/C=N/Nc3nc4ccccc4[nH]3)o2)cc1 |  |  | 1.03 µM (active) | > 60 µM (not active) | 
16 | CCOc1cc(/C=N/n2cnnc2)c(Br)cc1O | 14.1 µM (inconclusive) |  |  |  | 

Continued, in another order:

Row | AC50 (Cytochrome P450 3A4) | AC50 (Cytochrome P450 2C19; read-out: AC50) | SMILES | EC50 [1] | EC50 [2] | also measured
17 | 20 µM (inconclusive) |  | CCOC(=O)C(C)Sc1ncc(OC)c(Sc2ccc(Cl)cc2)n1 (stereo not given) |  |  | 
18 |  | 28.2 µM (inconclusive) | COc1cc(CNCCc2ccccc2)ccc1OCC(=O)NC(C)(C)C |  |  | 
19 |  | 17.8 µM (inconclusive) | O=C(Nc1cccc(F)c1)Nc1ccccn1 |  |  | 
20 | 28.2 µM (inconclusive) |  | O=C(O)CN1CCN(Cc2ccccc2Cl)C1=O |  |  | 
21 | 20 µM (inconclusive) |  | COc1ccccc1CN1CC[C@@]2(CCCN(S(C)(=O)=O)C2)C1 |  |  | 
22 |  | 39.8 µM (inconclusive) | COc1cccc(Cn2c(=O)c(C)nc3cnc(N4CCN(C)CC4)nc32)c1 |  |  | 
23 | 39.8 µM (inconclusive) |  | Cc1ccccc1-c1nc(-c2ccc(NC(=O)c3cccs3)cc2)no1 |  |  | 
24 | 20 µM (inconclusive) |  | Cn1c(=O)c(-c2ccc(Cl)cc2)nc2cnc(N3CCNCC3)nc21 |  |  | 
25 |  | 4.47 µM (inconclusive) | Cc1ccc(/C=C/c2ccc(=O)n(Cc3ccc(Cl)cc3Cl)n2)cc1 |  |  | 
26 | 15.8 µM (inconclusive) |  | Cc1ccc(C)n1N1C(=O)/C(=C\c2ccc(Cl)cc2)SC1=S |  |  | 
27 | 25.1 µM (inconclusive) | 31.6 µM (inconclusive) | COc1ncc2nc(-c3cc(F)cc(F)c3)c(=O)n(C[C@H]3CCCO3)c2n1 |  |  | 
28 | 15.8 µM (inconclusive) |  | O=C(Nc1ccccc1)N1CC[C@@]2(CCCN(C(=O)c3cnccn3)C2)C1 |  |  | 
29 | 22.4 µM (inconclusive) |  | CCN1CCCC1Cn1cnc2c3cc(C)ccc3nc-2c1O (stereo not given) |  |  | 
30 |  | 25.1 µM (inconclusive) | O=C(Nc1cccc(F)c1)N1CC[C@@]2(CCCN(C(=O)c3cc(C(F)(F)F)cc(C(F)(F)F)c3)C2)C1 |  |  | 
31 | 3.98 µM (inconclusive) | 20 µM (inconclusive) | CCn1c(S)nnc1-c1ccc2ncccc2c1 |  |  | 
32 |  | 20 µM (inconclusive) | O=C(Nc1cccc(F)c1)N1CCCC2(CCN(C(=O)c3cnccn3)CC2)C1 |  |  | 
33 |  | 39.8 µM (inconclusive) | COc1ccc(C(=O)N2CCC3(CCCN(C(=O)Nc4cccc(F)c4)C3)CC2)cc1 |  |  | 
34 |  | 11.2 µM (inconclusive) | CSc1nc(C)c2c(n1)N(c1ccc(C(F)(F)F)cc1)CC2 |  |  | 
35 | 14.1 µM (inconclusive) |  | COc1cc(/C=C(/NC(=O)c2ccccc2Cl)C(=O)O)cc(OC)c1OC |  |  | 
36 | 10 µM (inconclusive) | 39.8 µM (inconclusive) | CC1=C(C(=O)OCc2ccccc2)C(c2ccc(Cl)cc2)NC(=O)N1CCCCCC(=O)O (stereo not given) |  |  | 
